Laboratory results: US5688960A, “Substituted oximes, hydrazones and olefins useful as neurokinin antagonists” (Schering Corporation, priority 1996, dated 1997)

What was measured:
[1] = target: T1, human neurokinin 1 (NK1) receptor (Homo sapiens, UniProt P25103); experiment: Neurokinin receptor binding assay, [3H]-Substance P competition, CHO cell membranes (NK1); settings: [3H]-Substance P 0.8 nM
T1 construct: expressed in transfected cells; host or cells: Chinese Hamster ovary (CHO) cells; membranes
T1 sequence (P25103 whole entry): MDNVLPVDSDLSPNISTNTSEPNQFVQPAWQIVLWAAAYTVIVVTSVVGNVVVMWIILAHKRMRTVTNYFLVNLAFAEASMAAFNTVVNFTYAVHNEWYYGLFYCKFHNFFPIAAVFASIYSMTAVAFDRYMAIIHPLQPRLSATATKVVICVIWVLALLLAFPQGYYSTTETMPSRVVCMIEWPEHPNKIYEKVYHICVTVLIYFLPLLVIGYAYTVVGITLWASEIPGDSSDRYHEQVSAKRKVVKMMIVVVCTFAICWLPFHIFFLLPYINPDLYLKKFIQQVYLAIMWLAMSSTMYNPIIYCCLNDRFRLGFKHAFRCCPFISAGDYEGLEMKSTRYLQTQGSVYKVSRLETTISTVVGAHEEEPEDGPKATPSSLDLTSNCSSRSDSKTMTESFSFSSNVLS
Experimental: (§1) Chinese Hamster ovary (CHO) cells transfected with the coding regions for the human neurokinin 1 (NK1) of the human neurokinin 2 (NK2) receptors are grown in Dulbecco's minimal essential medium supplemented with 10% fetal calf serum, 0.1 mM non-essential amino acids, 2 mM glutamine, 100 units/ml of penicillin and streptomycin, and 0.8 mg of G418/ml at 37° C. in a humidified atmosphere containing 5% CO2.
(§2) Cells are detached from T-175 flasks with a sterile solution containing 5 mM EDTA in phosphate buffered saline. Cells are harvested by centrifugation and washed in RPMI media at […] for 5 minutes. […]
(§3) To assay receptor binding, 50 μl of [^3 H]-Substance P (9-Sar, 11-Met) (specific activity 41 Ci/mmol) (Dupont-NEN) (0.8 nM for the NK-1 assay) or [^3 H]-Neurokinin A (specific activity 114 Ci/mmole) (Zenca) (1.0 nM for the NK-2 assay) is added to tubes containing buffer (50 mM Tris-HCl (pH 7.4) with 1 mM MnCl2 and 0.2% Bovine Serum Albumin) and either DMSO or test compound. […] Filters are added to 6 mls of Ready-Safe liquid scintillation cocktail and quantified by liquid scintillation spectrometry in a LKB 1219 RackBeta counter. Non-specific binding is determined by the addition of either 1 μM of CP-99994 (NK-1) or 1 μM SR-48968 (NK-2) (both synthesized by the chemistry department of Schering-Plough Research Institute). […]

[2] = target: T2, human neurokinin 2 (NK2) receptor (Homo sapiens, UniProt P21452); experiment: Neurokinin receptor binding assay, [3H]-Neurokinin A competition, CHO cell membranes (NK2); settings: [3H]-Neurokinin A 1.0 nM
T2 construct: expressed in transfected cells; host or cells: Chinese Hamster ovary (CHO) cells; membranes
T2 sequence (P21452 1-398): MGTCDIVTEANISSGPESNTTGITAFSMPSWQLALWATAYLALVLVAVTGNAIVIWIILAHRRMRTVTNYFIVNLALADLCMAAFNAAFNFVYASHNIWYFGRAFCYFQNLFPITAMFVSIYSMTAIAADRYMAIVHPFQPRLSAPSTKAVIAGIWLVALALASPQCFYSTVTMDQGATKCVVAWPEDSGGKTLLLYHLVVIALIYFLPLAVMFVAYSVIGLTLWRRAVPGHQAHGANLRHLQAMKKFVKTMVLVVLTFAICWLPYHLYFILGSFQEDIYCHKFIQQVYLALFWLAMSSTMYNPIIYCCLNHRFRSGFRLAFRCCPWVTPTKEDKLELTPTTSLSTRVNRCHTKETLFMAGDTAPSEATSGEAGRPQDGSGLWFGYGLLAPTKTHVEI
Experimental: as §1, §2, §3

SMILES	Ki [1] [nM]	Ki [2] [nM]
CON=C(CN(C)C(=O)c1cc(C)cc(C)c1)C(CCN1CCC(O)(c2ccccc2)CC1)c1csc2ccccc12 (stereo not shown) [Example 7B]	0.65	4.5
OCCON=C(COCc1cc(C(F)(F)F)cc(C(F)(F)F)c1)C(CCN1CCC(O)(c2ccccc2)CC1)c1csc2ccccc12 (stereo not shown) [Example 4D]	1.8	23
